Here are results for 16 compounds from patent US20230365537A1, “POLO LIKE KINASE 4 INHIBITORS” (ORIC Pharmaceuticals, Inc., priority 2021, published 2023).

For one assay, the system named is CHP-134 cells. Description: CHP134 CellTiter-Glo (CTG) Assay. The format is cell-based. The note with it: Homo sapiens, CHP-134, 120 h, 5 days, viable cells by CellTiter-Glo. The gist of the method:
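Nine-point 1:3 dilution series, diluted into growth media, added in quadruplicate to CHP-134 cells plated 16 h earlier at 200 cells/well.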

For another assay, the target named is human recombinant PLK4 (Homo sapiens (Human), UniProt O00444). Description: PLK4 Biochemical Assay (ADP-Glo). As to conditions: 0.5 nM PLK4, 8.0 µM ATP, 4.7 µM MBP, 6 hours at RT. The essentials:
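Luminescent ADP-Glo detection quantified ADP production, with ATP depletion for 40 min and detection for 30 min at room temperature. Compound and PLK4 (1.0 nM stock addition) were preincubated 15 min in HEPES pH 7.5 buffer containing MgCl2, EGTA, DTT, Brij-35 and BSA. IC50 values were obtained by four-parameter nonlinear regression.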

Assay [1] deals with human recombinant Aurora B (Homo sapiens (Human), UniProt Q96GD4). Put plainly: Aurora B Kinase Biochemical Assay (ADP-Glo). As to conditions: ratio of Aurora B IC50 to PLK4 IC50 (selectivity). The gist of the method: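 IC50 derived by four-parameter nonlinear fit of ADP-Glo luminescence (ADP produced). Compound was preincubated 15 min at RT with 20 nM recombinant human Aurora B, in 50 mM HEPES pH 7.5, 10 mM MgCl2, 1 mM EGTA, 1 mM DTT, 0.01% Brij-35/BSA.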
human recombinant Aurora B, sequence (Q96GD4 whole entry): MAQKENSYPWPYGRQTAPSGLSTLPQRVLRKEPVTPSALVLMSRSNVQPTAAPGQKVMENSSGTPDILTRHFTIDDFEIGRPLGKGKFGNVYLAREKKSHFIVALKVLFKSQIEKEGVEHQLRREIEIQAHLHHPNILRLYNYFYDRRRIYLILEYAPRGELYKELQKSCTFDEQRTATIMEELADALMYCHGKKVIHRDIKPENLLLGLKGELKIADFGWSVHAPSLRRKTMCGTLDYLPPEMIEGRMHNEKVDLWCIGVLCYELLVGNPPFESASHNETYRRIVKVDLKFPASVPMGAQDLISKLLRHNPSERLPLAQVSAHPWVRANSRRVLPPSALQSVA

In assay [2] the target is human recombinant Aurora A (Homo sapiens (Human), UniProt O14965). Put plainly: Aurora A Kinase Biochemical Assay (ADP-Glo). As to conditions: ratio of Aurora A IC50 to PLK4 IC50 (selectivity).
human recombinant Aurora A, sequence (O14965 whole entry): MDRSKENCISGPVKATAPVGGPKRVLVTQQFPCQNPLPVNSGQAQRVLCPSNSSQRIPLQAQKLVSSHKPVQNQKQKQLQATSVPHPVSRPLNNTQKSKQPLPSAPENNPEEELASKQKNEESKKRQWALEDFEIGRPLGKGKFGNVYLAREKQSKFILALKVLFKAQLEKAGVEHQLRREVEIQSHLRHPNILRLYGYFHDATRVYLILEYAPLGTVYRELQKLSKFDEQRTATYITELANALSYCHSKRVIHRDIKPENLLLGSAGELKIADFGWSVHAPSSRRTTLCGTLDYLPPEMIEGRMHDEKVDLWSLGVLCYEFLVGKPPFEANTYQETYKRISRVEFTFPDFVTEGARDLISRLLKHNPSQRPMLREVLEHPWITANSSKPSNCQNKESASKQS

human recombinant PLK4, sequence (O00444 whole entry): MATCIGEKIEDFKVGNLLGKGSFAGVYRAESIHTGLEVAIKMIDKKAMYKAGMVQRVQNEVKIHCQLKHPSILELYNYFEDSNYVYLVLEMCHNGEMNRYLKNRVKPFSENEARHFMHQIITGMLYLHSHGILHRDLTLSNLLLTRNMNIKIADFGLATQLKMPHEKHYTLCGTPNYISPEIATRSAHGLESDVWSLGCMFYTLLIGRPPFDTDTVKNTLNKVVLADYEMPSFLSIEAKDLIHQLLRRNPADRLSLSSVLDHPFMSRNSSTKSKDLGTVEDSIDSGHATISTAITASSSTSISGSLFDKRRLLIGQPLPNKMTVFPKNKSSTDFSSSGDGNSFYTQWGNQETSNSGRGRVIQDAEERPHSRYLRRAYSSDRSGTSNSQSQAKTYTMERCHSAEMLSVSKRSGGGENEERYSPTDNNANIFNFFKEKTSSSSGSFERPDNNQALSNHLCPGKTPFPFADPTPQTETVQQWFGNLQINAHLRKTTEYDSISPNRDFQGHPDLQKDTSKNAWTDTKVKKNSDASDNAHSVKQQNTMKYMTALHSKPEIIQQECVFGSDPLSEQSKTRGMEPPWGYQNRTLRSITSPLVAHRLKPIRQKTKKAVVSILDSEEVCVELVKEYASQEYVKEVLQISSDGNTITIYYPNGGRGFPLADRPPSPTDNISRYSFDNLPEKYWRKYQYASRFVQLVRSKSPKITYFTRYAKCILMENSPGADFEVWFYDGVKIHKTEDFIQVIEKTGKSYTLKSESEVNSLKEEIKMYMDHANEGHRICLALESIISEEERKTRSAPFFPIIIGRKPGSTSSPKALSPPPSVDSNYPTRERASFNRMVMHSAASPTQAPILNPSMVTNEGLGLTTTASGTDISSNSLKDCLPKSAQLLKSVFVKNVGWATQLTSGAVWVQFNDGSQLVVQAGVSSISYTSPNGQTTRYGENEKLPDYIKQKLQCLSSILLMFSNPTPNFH

`COc1ccc2c(c1)[C@]1(C[C@H]1c1ccc3c(Nc4nc(N5CCC(F)(F)CC5)ncc4OC)n[nH]c3c1)C(=O)N2` [Example 189, (1R,2S)-2-(3-{[2-(4,4-difluornpiperidin-1-yl)-5-methoiypyrimidin-4-yl]amino}-1H-indazol-6-yl)-5′-methoxyspiro[cyclopropane-1,3′-indol]-2′(1′H)-one]: the IC50 in the assay on CHP-134 cells stood at 112 nM; on human recombinant PLK4, 1.04 nM. For the same compound, the “[Aurora B IC50 (nM)]/[PLK4 IC50 (nM)]” value in assay [1] is recorded as 514.5455. For the same compound, the “[Aurora A IC50 (nM)]/[PLK4 IC50 (nM)]” value in assay [2] is recorded as 383.7321.
For `COc1ccc2c(c1)[C@]1(C[C@H]1c1ccc3c(Nc4nc(N5CCS(=O)(=O)CC5)ncc4OC)n[nH]c3c1)C(=O)N2` [Example 190, 4-[5-methoxy-4-({6-[(1R,2S)-5′-methoxy-2′-oxo-1′,2′-dihydrospiro[cyclopropane-1,3′-indol]-2-yl]-1H-indazol-3-yl}amino)pyrimidin-2-yl]-1λ6-thiomorpholine-1,1-dione], in that order: 5120 nM, 2.66 nM, 279.1432 and 129.5378.
The corresponding values for `CNC(=O)c1ccc(Nc2n[nH]c3cc([C@@H]4C[C@@]45C(=O)Nc4ccc(OC)cc45)ccc23)c(OC)n1` [Example 191, 6-methoxy-5-({6-[(1R,2S)-5′-methoxy-2′-oxo-1′,2′-dihydrospiro[cyclopropane-1,3′-indol]-2-yl]-1H-indazol-3-yl}amino)-N-methylpyridine-2-carboxamide] are 494 nM, 2.27 nM, 84.9956 and 2416.5931.
The corresponding values for `COc1ccc2c(c1)[C@]1(C[C@H]1c1ccc3c(Nc4nc(N5CC6(COC6)C5)ncc4OC)n[nH]c3c1)C(=O)N2` [Example 192, (1R,2S)-5′-methoxy-2-(3-{[5-methoxy-2-(2-oxa-6-azaspiro[3.3]heptan-6-yl)pyrimidin-4-yl]amino}-1H-indazol-6-yl)spiro[cyclopropane-1,3′-indol]-2′(1′H)-one] are 1180 nM, 1.64 nM, 678.4625 and 2835.2654.
Take `COc1ccc2c(c1)[C@]1(C[C@H]1c1ccc3c(Nc4ncc(S(C)(=O)=O)cc4OC)n[nH]c3c1)C(=O)N2` [Example 193, (1R,2S)-2-(3-{[5-(methanesulfonyl)-3-methoxypyridin-2-yl]amino}-1H-indazol-6-yl)-5′-methoxyspiro[cyclopropane-1,3′-indol]-2′(1′H)-one]: the IC50 in the assay with CHP-134 cells came to 390 nM; at human recombinant PLK4 it was 1.13 nM. Besides, the “[Aurora B IC50 (nM)]/[PLK4 IC50 (nM)]” value in assay [1] was 138.8889. Also, the “[Aurora A IC50 (nM)]/[PLK4 IC50 (nM)]” value in assay [2] came out at 1463.8448.
For `COc1ccc2c(c1)[C@]1(C[C@H]1c1ccc3c(Nc4ccc(C(=O)N(C)C(C)C)nc4OC)n[nH]c3c1)C(=O)N2` [Example 194, 6-methoxy-5-({6-[(1R,2S)-5′-methoxy-2′-oxo-1’,2′-dihydrospiro[cyclopropane-1,3′-indol]-2-yl]-1H-indazol-3-yl}amino)-N-methyl-N-(propan-2-yl)pyridine-2-carboxamide], in that order: 126 nM, 0.965 nM, 103.7306 and 805.6995.
Consider `CCOc1cnc(SC)nc1Nc1n[nH]c2cc([C@@H]3C[C@@]34C(=O)Nc3ccc(OC)cc34)ccc12` [Example 195, (1R,2S)-2-(3-{[5-ethoxy-2-(methylsulfanyl)pyrimidin-4-yl]amino)-1H-indazol-6-yl)-5′-methoxyspiro[cyclopropane-1,3′-indol]-2′(1′H)-one], for which the IC50 in the assay on CHP-134 cells was 160 nM; at human recombinant PLK4, 1.56 nM. Besides, in assay [1], the “[Aurora B IC50 (nM)]/[PLK4 IC50 (nM)]” value came out at 740.3846. Also, in assay [2], the “[Aurora A IC50 (nM)]/[PLK4 IC50 (nM)]” value was found to be 3459.6154.
For `COc1ccc2c(c1)[C@]1(C[C@H]1c1ccc3c(Nc4nc(S(C)(=O)=O)ccc4OC)n[nH]c3c1)C(=O)N2` [Example 196, (1R,2S)-2-(3-{[6-(methanesulfonyl)-3-methoxypyridin-2-yl]amino}-1H-indazol-6-yl)-5′-methoxyspiro[cyclopropane-1,3′-indol]-2′(1′H)-one], in that order: 1670 nM, 3.32 nM, 100.8137 and 732.3689.
Consider `COc1ccc2c(c1)[C@]1(C[C@H]1c1ccc3c(Nc4ncc(C(=O)N(C)C)cc4OC)n[nH]c3c1)C(=O)N2` [Example 197, 5-methoxy-6-({6-[(1R,2S)-5′-methoxy-2′-oxo-1′,2′-dihydrospiro[cyclopropane-1,3′-indol]-2-yl]-1H-indazol-3-yl}amino)-N,N-dimethylpyridine-3-carboxamide], for which the half-maximal inhibitory concentration (IC50) was determined as 1080 nM in the assay with CHP-134 cells and 1.08 nM on human recombinant PLK4. In addition, the “[Aurora B IC50 (nM)]/[PLK4 IC50 (nM)]” value in assay [1] was found to be 73.8197. In addition, in assay [2], the “[Aurora A IC50 (nM)]/[PLK4 IC50 (nM)]” value is 1243.4944.
For `COc1ccc2c(c1)[C@]1(C[C@H]1c1ccc3c(Nc4cc(C(=O)N(C)C)ncc4OC)n[nH]c3c1)C(=O)N2` [Example 198, 5-methoxy-4-({6-[(1R,2S)-5′-methoxy-2′-oxo-1′,2′-dibydrospiro[cyclopropane-1,3′-indol]-2-yl]-1H-indazol-3-yl}amino)-N,N-dimethylpyridine-2-carboxamide], in that order: 10000 nM, 8.69 nM, 5752.4160 and 5752.4160.
For `COc1ccc2c(c1)[C@]1(C[C@H]1c1ccc3c(Nc4ccc(C(=O)N5CCOCC5)cc4OC)n[nH]c3c1)C(=O)N2` [Example 199, (1R,2S)-5′-methoxy-2-{3-[2-methoxy-4-(morpholine-4-carbonyl)anilino]-1H-indazol-6-yl}spiro[cyclopropane-1,3′-indol]-2′(1′H)-one], in that order: 108 nM, 0.716 nM, 57.7095 and 439.9441.
The corresponding values for `CCOc1nc(S(C)(=O)=O)ccc1Nc1n[nH]c2cc([C@@H]3C[C@@]34C(=O)Nc3ccc(OC)cc34)ccc12` [Example 202, (1R,2S)-2-(3-{[2-ethoxy-6-(methanesulfonyl)pyridin-3-yl]amino}-1H-indazol-6-yl)-5′-methoxyspiro[cyclopropane-1,3′-indol]-2′(1′H)-one] are 422 nM, 2.68 nM, 321.4179 and 1031.3433.
For `CCOc1cc(C(=O)N(C)C)cnc1Nc1n[nH]c2cc([C@@H]3C[C@@]34C(=O)Nc3ccc(OC)cc34)ccc12` [Example 203, 5-ethoxy-6-({6-[(1R,2S)-5′-methoxy-2′-oxo-1’,2′-dihydrospiro[cyclopropane-1,3′-indol]-2-yl]-1H-indazol-3-yl}amino)-N,N-dimethylpyridine-3-carboxamide], the IC50 with CHP-134 cells was determined as 324 nM; at human recombinant PLK4, 1.04 nM. In addition, the “[Aurora B IC50 (nM)]/[PLK4 IC50 (nM)]” value in assay [1] came out at 333.7812. The “[Aurora A IC50 (nM)]/[PLK4 IC50 (nM)]” value in assay [2] is recorded as 2922.2649.
The corresponding values for `COc1ccc2c(c1)[C@]1(C[C@H]1c1ccc3c(Nc4ncc(S(=O)(=O)N(C)C)cc4OC)n[nH]c3c1)C(=O)N2` [Example 204, 5-methoxy-6-({6-[(1R,2S)-5′-methoxy-2′-oxo-1’,2′-dihydrospiro[cyclopropane-1,3′-indol]-2-yl]-1H-indazol-3-yl}amino)-N,N-dimethylpyridine-3-sulfonamide] are 122 nM, 0.81 nM, 222.8395 and 342.9630.
For `COc1ccc2c(c1)[C@]1(C[C@H]1c1ccc3c(Nc4ccc(P(C)(C)=O)nc4OC)n[nH]c3c1)C(=O)N2` [Example 205, (1R,2S)-2-(3-{[6-(dimethylphosphoryl)-2-methoxypyridin-3-yl]amino}-1H-indazol-6-yl)-5′-methoxyspiro[cyclopropane-1,3′-indol]-2′(1′H)-one], in that order: 3440 nM, 1.64 nM, 235.7491 and 737.5152.
As for `CCOc1cc(S(C)(=O)=O)cnc1Nc1n[nH]c2cc([C@@H]3C[C@@]34C(=O)Nc3ccc(OC)cc34)ccc12` [Example 208, (1R,2S)-2-(3-{[3-ethoxy-5-(methanesulfonyl)pyridin-2-yl]amino}-1H-indazol-6-yl)-5′-methoxyspiro[cyclopropano-1,3′-indol]-2′(1′H)-one], the IC50 with CHP-134 cells was found to be 402 nM; at human recombinant PLK4 it was 0.897 nM. In addition, the “[Aurora B IC50 (nM)]/[PLK4 IC50 (nM)]” value in assay [1] was found to be 2471. Also, the “[Aurora A IC50 (nM)]/[PLK4 IC50 (nM)]” value in assay [2] is 7904.
